Experimental data published in article PMC9823356, “Inhibition of Cancer Cell Proliferation and Bacterial Growth by Silver(I) Complexes Bearing a CH3-Substituted Thiadiazole-Based Thioamide” (Molecules, 2023).
Read-outs that look alike come from different tables or passages of the source.

Columns and labels:
[1] = test system: Staphylococcus aureus (S. aureus); experiment: In vitro antibacterial activity, progressive double dilutions, culture turbidity; type: cell-based
From the text: (§1) The growth of bacteria was estimated by measuring the turbidity of the culture, as previously reported. […] The pH of the media was adjusted to 7.0.

[2] = test system: Escherichia coli (E. coli); experiment: as above; type: cell-based
From the text: as §1

[3] = test system: Bacillus cereus (B. cereus); experiment: as above; type: cell-based
From the text: as §1

[4] = test system: Bacillus subtilis (B. subtilis); experiment: as above; type: cell-based
From the text: as §1

[5] = target: T1, HSA (human serum albumin) (Homo sapiens, UniProt P02768); experiment: Serum albumin tryptophan fluorescence quenching; type: binding
T1 construct: purchased
Experimental: The serum albumin (SA) binding study was performed by tryptophan fluorescence quenching experiments using BSA (3 μM) or HSA (3 μM) in buffer (containing 1 mM trisodium citrate and 150 mM NaCl at pH 7.0).
The Stern-Volmer and Scatchard graphs are used in order to study the interaction of a quencher with serum albumins. According to Stern-Volmer quenching equation (Equation (2)), where Io = the initial tryptophan fluorescence intensity of SA, I = the tryptophan fluorescence intensity of SA after the addition of the quencher, kq = the quenching constant, KSV = the Stern-Volmer constant, τo = the average lifetime of SA without the quencher, [Q] = the concentration of the quencher. KSV (M^–1) can be obtained by the slope of the diagram Io/I versus [Q], and subsequently the quenching constant (kq, M^–1s^–1) is calculated from Equation (3) with τ0 = 10^–8 s as fluorescence lifetime of tryptophan in SA.
From the Scatchard equation (5) ΔΙ/Ιο/Q=nK−kΔΙ/Ιο where, n is the number of binding sites per albumin and K is the SA-binding constant, K (in M^–1) is calculated from the slope in plots ΔΙ/Ιο/Q versus ΔΙ/Ιο and n is given by the ratio of y intercept to the slope.

[6] = test system: EB–DNA conjugate (CT DNA); experiment: EB-DNA competitive binding, fluorescence quenching; parameters: species or system calf
From the text: The potential EB-displacing ability of the compounds was studied by a stepwise addition of a compound’s solution into the EB–DNA solution. The resultant changes were monitored by recording the variation of fluorescence emission spectra with excitation wavelength at 540 nm. […] The Stern-Volmer constant (KSV, in M^−1) is used to evaluate the quenching efficiency for each compound according to the Stern-Volmer equation (Equation (2)):(2) Io/I=1+kqτ0[Q]=1+KSV[Q] where Io and I are the emission intensities of the EB–DNA solution in the absence and the presence of the quencher, respectively, [Q] is the concentration of the quencher, τo = the average lifetime of the emitting system without the quencher and kq = the quenching constant. KSV may be obtained from the Stern-Volmer plots by the slope of the diagram Io/I versus [Q]. Taking τo = 23 ns as the fluorescence lifetime of the EB–DNA system, the quenching constants (kq, in M^−1s^−1) of the compounds can be determined according to Equation (3):KSV = kqτo(3)

calf-thymus (CT) DNA = experiment: CT DNA interaction by UV-visible spectroscopy; conditions: upon addition of CT DNA
Experimental: The UV-visible spectra of CT DNA solution (1.5 × 10^−4 M) were recorded in the presence of each compound at diverse [compound]/[DNA] mixing ratios (r).

[7] = value in parentheses, mean ± SD, read-out: IC50

T1 sequence (P02768 25-609): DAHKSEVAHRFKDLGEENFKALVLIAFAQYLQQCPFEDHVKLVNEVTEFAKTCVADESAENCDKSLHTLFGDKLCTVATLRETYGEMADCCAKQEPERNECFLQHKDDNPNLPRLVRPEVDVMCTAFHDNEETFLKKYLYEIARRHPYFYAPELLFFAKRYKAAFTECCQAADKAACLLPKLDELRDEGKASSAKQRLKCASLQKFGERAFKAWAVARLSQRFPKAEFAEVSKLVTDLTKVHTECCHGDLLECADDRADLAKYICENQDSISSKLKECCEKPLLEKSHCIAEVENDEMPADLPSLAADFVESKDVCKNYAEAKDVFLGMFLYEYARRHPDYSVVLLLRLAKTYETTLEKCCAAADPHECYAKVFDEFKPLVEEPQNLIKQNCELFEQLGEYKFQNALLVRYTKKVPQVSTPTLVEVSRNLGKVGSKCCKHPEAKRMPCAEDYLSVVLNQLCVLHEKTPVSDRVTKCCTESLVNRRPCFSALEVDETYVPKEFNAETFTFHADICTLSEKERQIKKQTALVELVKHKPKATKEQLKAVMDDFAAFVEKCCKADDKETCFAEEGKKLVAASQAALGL

Substance: [Ag(mtdztH)(dppe)(NO3)]n [Compound 4]
- IC50 [1]: 8 µg/mL
- MIC [1]: 50 µg/mL
- MIC ([1]; value in parentheses): 45 μΜ
- IC50 [1, 7]: 7.3 ± 1.6 µM
- IC50 [2]: 11 µg/mL
- MIC ([2]; ampicillin reference against E.coli (BL21)): higher than 100 μg/mL
- MIC ([2]; value in parentheses): 91 μΜ
- IC50 [2, 7]: 15.4 ± 2.4 µM
- IC50 [3]: 5 µg/mL
- MIC [3]: 50 µg/mL
- MIC ([3]; value in parentheses): 45 μΜ
- IC50 [3, 7]: 4.6 ± 0.7 µM
- IC50 [4]: 4.9 µg/mL
- MIC [4]: 30 µg/mL
- MIC ([4]; value in parentheses): 27 μΜ
- IC50 [4, 7]: 4.5 ± 0.8 µM
- binding constant K ([5]; Scatchard equation): 7.21 (±0.53) × 10^4 M^−1
- HSA emission quenching ([5]; λex 295 nm, λem 338 nm): 23%
- emission-quenching constant kq ([5]; τ0 = 10^–8 s): 5.11 (±0.37) × 10^11 M^−1s^−1
- EB-DNA Stern–Volmer constant KSV [6]: 5.68 (±0.20) × 10^4 M^−1
- EB–DNA fluorescence quenching ΔI/Iο ([6]; λex 540 nm): 27.6%
- percentage of hyper-/hypochromism ΔA/Aο (calf-thymus (CT) DNA; DMSO solution, + hyperchromism, – hypochromism): –13%
- hypochromism (intensity decrease) of absorption band at 272 nm (calf-thymus (CT) DNA): up to 13%
